Results taken from patent US7718613B2, “Armed peptides” (priority 2001, dated 2010).
The star is where a group is joined. Biotin = O=C1N[C@H]2[C@H](CS[C@H]2CCCCC(=O)*)N1; Myristoyl = CCCCCCCCCCCCCC(=O)*

Experiments:
[1] = Cytolytic activity of pH-responsive peptides on calcein liposomes at different pH; conditions: liposomes 4 μM lipid; 14 nM peptide 2, 20 nM peptide 7, 45 nM peptide 9; FIG. 4
Protocol: Liposomes encapsulating calcein dye were prepared by an extrusion method (Biochim. Biophys. Acta, 812 (1985) 55). Phophatidylcholine (50 mg) and cholesterol (13.08 mg) which had been dissolved in 4 ml of 50% v/v chloroform methanol solution were evaporated to form a lipid film in a round bottom flask. If it is essential to follow the fate of liposomes a lipohilic-dye such as DiI (50 μg) could be incorporated into the lipid film prior to hydration. The film was then hydrated with 4 ml of 120 mM calcein solution prepared in 10 mM sodium phosphate 20 mM Sodium chloride buffer pH 7.4. Liposomes were formed by 10 extrusion cycles through 0.2 micron or 0.1 um polycarbonate filters using the Liposofast 100 (Avestin) extruder device. The non encapsulated dye was removed by gel filtration on a PD-10 column using iso-osmotic buffer. The total lipid concentration of the liposomes was measured by the Stewart assay and adjusted to 3 mg per ml.
The cytolytic activity of pH-responsive peptides was followed by adding 2 or 3 μl of liposomes to a 2 ml assay volume and continually recording fluorescence. Buffers were made of 10 mM Na phosphate, 140 mM NaCl, 1 mM EDTA, 5 mM HEPES at several different pH values. […] In the experiments 2 ml of 10 mM Na phosphate, 140 mM NaCl, 1 mM EDTA, 5 mM HEPES buffer (at pH values indicated on the figure) containing liposomes (4 μM lipid) and (A) 14 nM peptide 2, (B) 20 nM peptide 7 (C) 45 nM peptide 9. In all cases peptides were added indicated by sharp dip in fluorescence were used. The pH values are as indicated for each trace. […] In general, it is well documented that many proteins including receptors, enzymes and antibodies has pH optimum usually closer to physiological value. On either side of the pH optimum the binding activity is reduced. However in general as activity profile is typically bell shape most proteins would tolerate at least a pH unit shift from optimum. Obviously the closer the results are to pH 7.4 the higher chances their are for efficient binding with target proteins or receptors.

Rif-1 allografts = assay: In vivo imaging of calcein release, dorsal window chamber with implanted tumours; set-up: species or system mice; conditions: for calcein fluorescence in tumour after armed complex relative to control liposomes: 100 μl complex via tail vein, untreated (No MIBG/glucose) mice, FIG. 10
Protocol: Similar methodology could be used for in vivo imaging of tumours whereby the payload is a marker or diagnostic reagent sequestered inside liposomes. For instance, when using the dye calcein, the pH released dye would be detected by increase in green fluorescence. […] Complex was prepared from biotinylated peptide (1) by adding 10 μl of pH 8 buffer to 41 μg of peptide to which was added 150 μl of Hposomes encapsulating calcein. The complex was incubated briefly and 100 μl was injected via the tail vein into mice with implanted tumours. The control mice were given equivalent levels of untreated liposomes. Using the dorsal window chamber model (Biophysics. 1997,1785-1790 & Nature Biotechnology 1999,17,1033-1035,) with implanted tumours (Rif-1 allografts) direct in vivo examination of the calcein in and around the tumours was made by fluorescence microscopy and computer controlled time-lapse images. […] Note that many tumours in animals and human, Rif-1 being one example, have an ambient pH that is slightly lower than that of normal tissue (Science 1980, 210,1253-1255 & Cancer Res 1989,4373-4384). This pathophysiological feature of tumours may be used for cancer detection. Thus unarming the complex which triggers below but close to physiological pH causes the release of dye almost immediately. This way the armed complexes can be used for in vivo detection of disease and particularly for the detection of cancer. Similarly, if the payload was combination of calcein dye and anticancer drug it would be possible to detect and treat with same formulation offering major advantages for diagnosis and treatment.

[2] = Liposome-peptide integral complex: pH-triggered calcein release and stability; conditions: complex tested 40 minutes from preparation; FIG. 9
From the text: A fatty acid incorporated on the N-terminal of peptide anchors the sequence with liposomes to form integral complex which can then be used as single stable reagent that can be triggered to release the contents-of the liposomoes when the pH is ideal (i.e physiological 7.4) or acidic (e.g 6.2). In the first instance we prepared the liposome-peptide complex at a predetermined ratio of lipid-to peptide (30:1) in pH 8 buffer using peptide 10. […] The complex between liposomes and peptide was formed by adding peptide to […] of 10 mM NaP containing 140 mM NaCl, 1 mM EDTA, 5 mM Hepes pH 8 buffer, containing 100 μl of calcein encapsulating liposomes. The mixture was incubated for 20 mins to form the complex prior to use. In order to ascertain that the lysis is occurring due to the formation of complex and not as the action of the peptide per se it was essential to purify the liposome-peptide complex. The peptide to lipid ratio in this complex is 1:30. The complex was applied to a Sepharose CL-6B column. Fractions corresponding to liposomes were collected as clearly visible to the eye. Aliquots of these fractions were then tested for lytic activity at acidic and physiological pH values. The key aim was to establish that the peptide is liposome associated and would thus be eluted with liposome fraction in the void volume. We used 100 μl complex (a column purified fraction) and followed the release of Calcein at two different pH values.
FIG. 8A. […] Upper curve pH 5.8. Lower curve pH 7.4.
2 ml buffer (10 mM Na phosphate, 140 mM NaCl, 1 mM EDTA, 5 mM HEPES)+50 μl purified complex. Lipsomes used were 50 nm extruded. Curves top to bottom are pH 6.2, 6.4, 6.7, 7.0, 7.4
Complex 20 μl liposomes+60 μl pH 8 buffer+20 μl peptide (0.1 mg/ml) prepared and used within 2 minutes. 10 μl was added to each of the cuvettes containing 2 ml buffers. Top curve pH 6.2 (triton was added towards the end indicated by sharp dip in fluorescence to check full lysis), the lower curve is at pH 7.4. Samples measured simultaneously.
5 μL of complex in 2 ml of buffer tested 20 minutes after preparation. Upper curve pH 6.2, Lower curve pH 7.4.
5 μL of complex in 2 ml of buffer tested 5 hrs after preparation. Upper curve pH 6.2 and lower curve pH 7.4.
5 μL of complex in 2 ml of buffer tested 24 hrs after preparation curve pH 6.2, Lower curve pH 7.4.

[3] = Detection of biotin by pH arming (avidin cloaking, calcein liposomes)
From the text: The modified peptide retained its activity and pH responsive properties upon modification with biotin. […] In FIG. 2, the curves from top to bottom represent (i) Peptide at pH 6.6, (ii) Peptide at pH 8 and (iii) background signal in the absence of any peptide. In FIG. 2A, the curves from top to bottom represent peptide in the presence of (i) 11 piccolos of biotin and 1,2 fold excess avidin at pH 6.6, (ii) 1.2 fold excess avidin at pH 6.6, (iii) 11 piccolos of biotin and 1.2 fold avidin at pH 8 and (iv) 1.2 fold excess avidin at pH 8.
The biotin assay using pH sensitive peptide was repeated in a glass vial which could be illuminated with a small torch or blue LED light source. Specifically, the vials contained 1.2 ml of biotinylated hybrid peptide (17 nM) in PBS buffer pH 6.2 containing calcein liposomes ([…]) and 1.2 fold excess avidin. Biotin was present in vials 3 to 6 in increasing concentration. Vials are as follows: (1) Background sample containing liposomes only, (2) no biotin, (3) 12 pmoles biotin, (4) 15 pmoles biotin, (5) 17 pmoles biotin, (6) 50 pmoles Samples were illuminated by simple 3 mm blue diodes from underneath the cuvettes. Photographs in the order top to bottom, were taken at indicated times from addition of liposomes. The actual fluorescence readings taken on a fluorimeter at five minute period are also shown graphically. Five minutes after the addition of all reagents the fluorescence became clearly visible to the naked eye compared to the background which remained low and constant allowing detection of 12 picomole of biotin rapidly without any instrumentation. (FIG. 3). However, instrumentation available in most laboratories (e.g., fluorescence, absorption, luminescence, electrochemical, biosensors), can also be used for quantitative analysis by changing the signal development molecules incorporated into the liposomes.
Peptides were prepared at concentrations ranging from 1 to 0.01 mg/ml, depending on the activity of peptide, in deionised. A stock solution of avidin (5 unit per ml, one unit of avidin binds 1 μg of biotin.) was prepared in PBS pH 7.4 buffer. Biotin, from a stock solution of 10 mg/ml prepared in DMSO, was diluted 10000 fold with water to obtain working concentrations of 1 μg/ml. A typical cytolytic assay was performed in a total volume of 2 ml PBS buffer containing calcein liposomes (5 μM lipid) as prepared above. The progress of dye leakage was continually followed using excitation and emission wavelengths of 490 and 520 nm respectively. Peptide of known concentrations-was added at certain time points and the solution was rapidly mixed while continuing to measure signal. For uncloaking the peptide activity using biotin, the additions were made to the buffer sequentially in the order avidin, 2 minute incubation with biotin followed by the addition of biotinylated peptide (44 nM). The mixture was incubated for filter 2 minutes and fluorescence measurement initiated. At selected time points liposomes (7 μM) were added and solution mixed. For the cloaking experiments the additions were essentially the same except no free biotin was added. The avidin concentration was a 1.2 fold excess units to ensure complete cloaking. For evaluating dual trigger switching properties of biotinylated peptide the liposomes (7 μM lipid) in 2 ml of buffer were treated with peptide. (2.8 nM) and fluorescence measured continually. For cloaking experiments and pH arming the peptide solution (2.8 nM) was incubated with a 1.2 fold excess of avidin solution for 3 minutes and the cytolytic assay performed at pH 6.6 and 8. For the uncloaking experiments the avidin was pre-incubated with 11 picomoles of biotin solution.
In the control sample, liposomes (4 μM lipid) were added to 1.2 ml solution of peptide (14 nM) pre-incubated with a 1.2 fold excess avidin. Test samples contained biotin at known concentrations. […]

Row | Substance | pH of triggering (pH profile of calcein release from liposomes) [1] [pH] | calcein fluorescence in tumour after armed complex relative to control liposomes (Rif-1 allografts) | calcein fluorescence in tumour after armed complex relative to control liposomes (Rif-1 allografts; listed as biotinylated peptide (1)) | triggering pH relative to another peptide (Rif-1 allografts; mouse, in vivo) | triggering of complex [2] | cloaking of the complex by avidin binding ([3]; 1.2 fold excess avidin) | release in the presence of analyte (biotin) and avidin at acidic pH ([3]; biotin, 1.2 fold excess avidin, pH 6.6) | release in the presence of analyte (biotin) and avidin at pH 8 ([3]; biotin, 1.2 fold excess avidin, pH 8) | amount of biotin detected by naked eye ([3]; glass vial, blue LED, five minutes, PBS pH 6.2, 1.2 fold excess avidin) [picomole] | activity of peptide-liposome complex at acidic pH ([3]; pH 6.6, FIG. 2) | activity of peptide-liposome complex at alkaline pH ([3]; pH 8, FIG. 2)
1 | Myr-EAALAEALAEALAEGKPALISWIRRRLQQ-amide (Myristoyl-EAALAEALAEALAEGKPALISWIRRRLQQ-NH2; SMILES CCCCCCCCCCCCCC(=O)N[C@@H](CCC(=O)O)C(=O)N[C@@H](C)C(=O)N[C@@H](C)C(=O)N[C@@H](CC(C)C)C(=O)N[C@@H](C)C(=O)N[C@@H](CCC(=O)O)C(=O)N[C@@H](C)C(=O)N[C@@H](CC(C)C)C(=O)N[C@@H](C)C(=O)N[C@@H](CCC(=O)O)C(=O)N[C@@H](C)C(=O)N[C@@H](CC(C)C)C(=O)N[C@@H](C)C(=O)N[C@@H](CCC(=O)O)C(=O)NCC(=O)N[C@@H](CCCCN)C(=O)N1CCC[C@H]1C(=O)N[C@@H](C)C(=O)N[C@@H](CC(C)C)C(=O)N[C@H](C(=O)N[C@@H](CO)C(=O)N[C@@H](Cc1c[nH]c2ccccc12)C(=O)N[C@H](C(=O)N[C@@H](CCCNC(=N)N)C(=O)N[C@@H](CCCNC(=N)N)C(=O)N[C@@H](CCCNC(=N)N)C(=O)N[C@@H](CC(C)C)C(=O)N[C@@H](CCC(N)=O)C(=O)N[C@@H](CCC(N)=O)C(N)=O)[C@@H](C)CC)[C@@H](C)CC) [peptide 2] | ~7 |  |  |  |  |  |  |  |  |  | 
2 | Myr-GIGAVLRVLTTG(TLLEFLLEELLEFL)KPALISWIRRRQQ-Amide [peptide 7] | ~7 |  |  |  |  |  |  |  |  |  | 
3 | Myristoyl-EAALAEALAEALAEGK(Biotin)PALISWIRRRLQQ-NH2 [peptide 1] |  | significant release of payload | intense image | closer to physiological pH than peptide 9 | trigger in acidic media | efficiently cloaked | triggered | only slight release | 12 | active | inactive
